Assay results taken from patent US12083113B2, “Use of neuronal nitric oxide synthase inhibitors for immunotherapy in melanoma patients” (Northwestern University, priority 2018, dated 2024).

Key:
[1] = tested on: nNOS expression in WM3211 cells; assay: Western blot of nNOS expression in primary melanoma WM3211 cells; type: cell-based, human; settings: IFN-γ persisted after 96 hours, IFN-α within 4 hours, recovered by 24 hours
Method: (§1) FIG. 2. A-C) Effects of IFN-α and IFN-γ treatment on nNOS expression levels in human primary melanoma WM3211 cells (A-B) and metastatic melanoma A375 cells. C) Distinct effects of IFN-α and IFN-γ on nNOS expression of A375 metastatic melanoma cells. A375 cells were treated with 500 units/mL of IFN-α or IFN-γ for 48 hours and whole cell lysates were collected. Samples were subjected to Western blot analysis for nNOS. A control of the protein loading was performed by detecting actin. D) Intracellular nitric oxide levels detected by microplate reader using DAF-FM fluorescence probe after IFN-α or IFN-γ treatment for 24 hours. E) IFN-γ-inducible nNOS expression was abrogated in nNOS-depleted melanoma cells. A375 cells transfected with shRNA-nNOS were treated with IFN-γ for 24 hours, followed by Western blot analysis.
Protein isolation and Western blotting. All samples were kept at 4° C. unless otherwise noted. […]
Equal amounts of protein, as detected by Bradford assay, were loaded and resolved on 7.5% SDS-polyacrylamide gels, then transferred to Immobilon-P^SQ polyvinylidene difluoride (PVDF) membranes (ISEQ00010; Merck KGaA, Darmstadt, Germany). […] Labeled bands were detected using SuperSignal horseradish peroxidase chemiluminescence reagents (1859674; 1859675; Thermo Fisher Scientific, Waltham, MA) and images were captured and analyzed using the Bio-Rad ChemiDoc XRS^+ System.

STAT1 = assay: Western blot of STAT1 in A375 cells; type: cell-based, human; settings: interferon alone
Method: FIG. 3. […] A375 cells were treated with 100 units/mL and 250 units/mL of IFN-γ or IFN-α for 24 hours; whole cell lysates and nuclear extracts were used for Western blot analysis to detect STAT3 and pSTAT3 respectively. […] Protein isolation and Western blotting. All samples were kept at 4° C. unless otherwise noted.
The membranes were blocked using 10% non-fat milk (NOS1, STAT1/2, Actin, Lamin A/C) or 5% bovine serum albumin (BSA; SH3057402; Fisher Scientific, Waltham, MA) (p-STAT1/3), then incubated with primary antibodies for 1 hour at room temperature or overnight at 4° C., followed by secondary antibodies for 1 hour at room temperature as recommended by the manufacturer. Blots were washed extensively with TBS-T after each antibody incubation.

[2] = tested on: WM115, Sk-mel-28 and A375; assay: Reverse Phase Protein Array in three human melanoma cell lines; type: cell-based; settings: 250 units/mL interferon, average of three cell lines
Method: FIG. 4. A) Heat map of Reverse Phase Protein Array (RPPA) showing distinct effects of IFN-α and IFN-γ on protein expression levels in three human melanoma cell lines (WM115, Sk-mel-28 and A375). Three melanoma cell lines were treated with 250 units/mL of interferons for 48 hours. Whole cell lysates were collected and subjected to RPPA assay. […] Red, high expression; green, low expression. All the data points were normalized for protein loading and transformed to linear value. […] Average changes of three cell lines detected by RPPA were shown in the figure. *, p<0.05 in comparison to control and IFN-α. C-E) Induction of PD-L1 by IFN-γ was diminished by the co-treatment of nNOS inhibitors. […]. Cell surface expression of PD-L1 was determined by flow cytometry. Representative histograms out of two independent experimental replicates are shown. C) IFN-α or IFN-γ (100 Units/ml); D-E) IFN-α or IFN-γ (250 Units/ml).
Reverse Phase Protein Array. Plated cells were treated with 250 units/mL of IFN-α or IFN-γ for […]. After washing with 1×PBS, lysis buffer (1% Triton X-100, 50 mM HEPES, pH 7.4, 150 mM NaCl, 1.5 mM MgCl2, 1 mM EGTA, 100 mM NaF, 10 mM Na pyrophosphate, 1 mM Na3VO4, 10% glycerol and 1% PIC) was added to the plates, followed by incubation on ice for 20 minutes with occasional shaking. Samples were then collected via scraping and spun down at 14,000 g^−1 for 10 minutes at 4° C. The protein concentration was then quantified by Bradford method and adjusted to 1.5 μg/μL with lysis buffer. Cell lysates were then mixed with 4×SDS sample buffer (40% glycerol, 8% SDS, 0.25M Tris-HCl, pH 6.8 with 10% BME). Miniscule amounts of serially diluted protein samples were then dotted on a nitrocellulose coated slide and probed with validated primary antibodies and a biotin-conjugated secondary antibody. The signals were amplified using Dako-Cytomation-Catalyzed system (Dako) and visualized by diaminobenzidine (DAB) colorimetric reaction. Dilution curves were fitted with Supercurve Fitting and the protein expressions normalized for protein loading.

PD-L1 in A375 cells = assay: PD-L1 expression by immunofluorescence staining; type: cell-based, human
Method: FIG. 5. Expression of PD-L1 in metastatic melanoma A375 cells detected by immunofluorescence staining. […]. Cells were then fixed and permeabilized with 4% formaldehyde and methanol. Samples were blocked in blocking buffer containing 5% horse serum for 1 hour. The slides were then allowed to incubate in a 1:50 PD-L1 antibody dilution overnight at 4° C. and DAPI reagent for 1 hour. Representative images are shown stained with PD-L1 antibody (green) and DAPI (blue fluorescence). (Original magnifications, 100×). Representative images for 2 experimental replicates are shown.
Expression levels of PD-L1 detected by Immunofluorescence. A375 cells were plated on coverslips and incubated with 250 units/mL of IFN-α or IFN-γ in the presence or absence of […] of nNOS inhibitors for 72 hours. After treatment, cells on coverslips were fixed with 4% formaldehyde/PBS for 15 minutes at room temperature, followed by incubation with ice-cold 100% methanol for 10 minutes at −20° C. Samples were then incubated in blocking buffer (1×PBS, 5% horse serum, 0.3% Triton X-100) for 60 minutes, then in a 1:50 PD-L1 antibody dilution in dilution buffer (1×PBS, 1% BSA, 0.3% Triton X-100) overnight at 4° C. Stained specimens were rinsed with PBS then cured in the dark with DAPI fluorescence staining reagent for 1 hour. Slides were visualized and recorded using the BZ-X700 microscope (Keyence, Itasca, IL).

[3] = tested on: intracellular NO in melanoma cells; assay: Intracellular nitric oxide levels, DAF-FM fluorescence probe; type: cell-based, human; settings: DAF-FM probe after interferon exposure
Method: as §1
Detection of intracellular nitric oxide levels. Cultured cells in a 96-well plate were treated with 100 units/mL of IFN-α or IFN-γ for 48 hours. Once the incubation period was complete, the media was removed and replaced with Hank's Balanced Salt Solution (HBSS). 1 μM of 4-Amino-5-methylamino-2′,7′-difluorofluorescein (DAF-FM) probe was added to each condition and fluorescence levels produced by DAF-FM were detected using a fluorescence microplate reader with excitation and emission wavelengths of 485 and 538 nm, respectively.

[4] = tested on: PD-L1 in A375 melanoma cells; assay: Cell surface PD-L1 expression by flow cytometry; type: cell-based, human
Method: FIG. 4. […] Three melanoma cell lines were treated with 250 units/mL of interferons for 48 hours. Whole cell lysates were collected and subjected to RPPA assay. […] Red, high expression; green, low expression. All the data points were normalized for protein loading and transformed to linear value. […] Cell surface expression of PD-L1 was determined by flow cytometry. Representative histograms out of two independent experimental replicates are shown. C) IFN-α or IFN-γ (100 Units/ml); D-E) IFN-α or IFN-γ (250 Units/ml).
Expression levels of PD-L1 detected by Flow Cytometry.

[5] = tested on: A375 human melanoma xenograft; assay: A375 melanoma xenograft, HH044 20 mg/kg (Example 2)
[6] = tested on: human melanoma cell lines (A375, Sk-Mel-28, wm3211); assay: Cytotoxicity by MTT colorimetric analysis in human melanoma cell lines; type: cell-based; settings: read-out: Cytotoxicity (IC50 from 3 melanoma cell lines)
Method: Table 1. […] All the NOS isozymes used were recombinant enzymes overexpressed in E. coli. Ki values are calculated directly using known literature methods and detailed in co-PI R. Silverman's published manuscripts (17, 18, 64, 85). Cytotoxic effects of nNOS inhibitors in human melanoma were detected by MTT colorimetric analysis (85). The IC50 values are the average of at least two human melanoma cell lines.

[7] = tested on: Human A375 metastatic melanoma xenograft; assay: A375 melanoma xenograft, IFN-γ with or without MAC-3-190; type: in vivo, nude mice
Method: FIG. 6. […] Data was represented as mean±SD.
FIG. 7. Expression of PD-L1 in xenograft tumor samples obtained from the subject is administered an inhibitor of NOS and further is administered study detected by immunohistochemistry staining. PD-L1 staining (brown) of specimens at 100× (A) and 20× (B) magnification. […] . PD-L1 (C) and CD8 (D) stained specimens captured at 2× magnification.
In Vivo Xenograft Melanoma. […] .

A375 cells = assay: Cytotoxicity in A375 cells; type: cell-based, human
Sk-mel-28 cells = assay: Cytotoxicity in Sk-mel-28 cells; type: cell-based, human

IFN-α was tested, and the nNOS expression levels [1] was “undetectable levels”, the “expression of STAT1” value (STAT1) was “increase” and the “PD-L1 expression level (RPPA)” value [2] was “absent”. The “extracellular expression of PD-L1” value (PD-L1 in A375 cells; interferon alone, 250 Units/ml, 72 hours) was “low basal expression”, the “intracellular NO levels” value [3] was “significantly decreased” and the “cell surface expression of PD-L1” value ([4]; interferon alone, three cell lines) was “reduced”.

With `N=C(Nc1ccc(CCNCc2cccc(NC(=N)c3cccs3)c2)cc1)c1cccs1` [HH044] the “lung, liver, and kidney weights” value ([5]; 20 mg/kg/day for 21 days) was “no significant changes”, the body weight ([5]; 20 mg/kg/day for 21 days, 23.9 g in control group) was 22.6 g and the “reduction in body weight” value ([5]; 20 mg/kg/day, not statistically significant (p>0.05)) was under 10%. It also gave an IC50 [6] of 5.27 ± 3.3 µM.

With `CNCc1cccc(CCc2ccc3c(C)cc(N)nc3c2)c1` [MAC-3-190] the “IFN-γ-inducible PD-L1 expression” value (PD-L1 in A375 cells; co-treatment with 3 μM, IFN-γ 250 Units/ml, 72 hours) was “significantly diminished”, the “basal level of PD-L1” value (PD-L1 in A375 cells; treatment with inhibitor alone, compared to control) was “did not alter” and the “MFI of PD-L1 staining obtained via flow cytometry” value ([4]; A375 cells, IFN-γ alone or with MAC-3-190 (3 μM), 72-hour treatment) was 1.9 folds of control. For the same compound, the “Induction of PD-L1 by IFN-γ, cell surface expression” value ([4]; A375 cells, co-treatment with nNOS inhibitor 3 μM, 72 hours) was “diminished”, the “PD-L1 expression in xenograft tumors” value ([7]; 10 mg/kg/day) was “significantly reduced” and the “PD-L1-positive staining in xenograft tumors (immunohistochemistry)” value ([7]; 21-day treatment, IFN-γ 1000 units per mouse i.p. daily, with or without MAC-3-190 5 mg/kg/day) was over 15%. For the same compound, the “induction in tumor volume by IFN-γ, end of study” value ([7]; co-treatment, 5 mg/kg subcutaneously injected daily, p<0.05 compared to IFN-γ treatment) was “effectively diminished”.

Work on `N.N.[Cl][Pt][Cl]` [cisplatin] yielded an IC50 (A375 cells) of 4.2 µM and an IC50 (Sk-mel-28 cells) of 14.3 µM.
